Test results from ChEMBL document CHEMBL5365429, “Discovery of 5-sulfonyltetrazoles as neuroblastoma differentiation agents” (Bioorg Med Chem Lett, 2023).
The source made the active and inactive calls. The calls are words filed in the database; no cut-off is given here.

Assays:
Assay type in all cases: functional, cell-based
BE(2)-C [1] = assay: Induction of neuron differentiation in human BE2C cells assessed as neurite outgrowth by measuring neurite length at 25 uM measured after 4 days; settings: time 4.0 day
BE(2)-C [2] = assay: Induction of neuron differentiation in human BE2C cells assessed as neurite outgrowth by measuring neurite length at 25 uM
BE(2)-C [3] = assay: Induction of neuron differentiation in human BE2C cells assessed as neurite outgrowth by measuring neurite length; settings: dose 50-200 µM
BE(2)-C [4] = assay: Antiproliferative activity against human BE2C cells assessed as reduction in cell viability; settings: dose 50-200 µM
BE(2)-C [5] = assay: Antiproliferative activity against human BE2C cells assessed as reduction in cell viability at 25 uM
BE(2)-C [6] = assay: Induction of neuron differentiation in human BE2C cells assessed as neurite outgrowth by measuring neurite length at 25 uM by imaging analysis
BE(2)-C [7] = assay: Antiproliferative activity against human BE2C cells assessed as reduction in cell viability at 25 uM measured after 4 days; settings: time 4.0 day

SMILES | Activity (BE(2)-C [1]) | also measured
Cn1nnnc1S(=O)(=O)CC1CCC1 | Active | 
Cn1nnnc1SCC1CC1 | inactive | 
CCSc1nnnn1C | inactive | 
CSc1nnnn1C | inactive | 
CCCSc1nnnn1C | inactive | 
Cn1nnnc1SCC1CCC1 | inactive | 
Cn1nnnc1S(C)(=O)=O | Active | 
CCCS(=O)(=O)c1nnnn1C | Active | 
CCS(=O)(=O)c1nnnn1C |  | Activity (BE(2)-C [2]): Active; Activity (BE(2)-C [3]): Dose-Dependent Effect; Activity (BE(2)-C [4]): Dose-Dependent Effect; Activity (BE(2)-C [5]): Active; Activity (BE(2)-C [6]): Active
C=CCS(=O)(=O)c1nnnn1C | Active | Activity (BE(2)-C [7]): Active
C=CCSc1nnnn1C | inactive | 
Cn1nnnc1SCC#C[Si](C)(C)C | inactive | 
